# Measured values taken from patent US20150037372A1, “pH-Responsive High-Density Lipoprotein-Like Particle Complex” (RESEARCH & BUSINESS FOUNDATION SUNGKYUNKWAN UNIVERSITY, priority 2012, published 2015).
# “And” between values parts separate entries of the source, which are not always exact repeats. Equal entries are not always repeated.
# Assays:
# ICR mice [1] = test: Primary in vivo test using apoA-I with endotoxin content of more than 10,000 EU/mg (Example 7-2); conditions: for body weight loss / ALT / AST / Liver (%): endotoxin-containing apoA-I test; for ALT / AST: serum; for Liver (%): weight of liver relative to body weight
# Protocol: (§1) A solution containing the drug Epothilone B (EpoB) was sonicated in the presence of a surfactant (sodium cholate) to encapsulate the EpoB in micelles composed of the surfactant. Then, apoA-I was added to and mixed with the sonicated solution while the concentration of the surfactant was lowered below its critical micelle concentration by dilution. The remaining surfactant was removed by Bio-bead, and the remaining solution was subjected to centrifugation and size exclusion chromatography, thereby preparing an EpoB-encapsulating apoA-I (hereinafter referred to as ‘EpoB-rHDL’).
# (§2) EpoB was dissolved in poly ethylene glycol 300 (PEG 300) and then diluted so that the final concentration of PEG 300 was 30% (v/v). In addition, 30% PEG 300 that is a medium for Epothilone B, and apoA-I were selected as negative controls.
# (§3) Twenty-eight (seven per group) 6-week-old female ICR mice were purchased from Orientbio Inc. (Korea). The mice were subjected to veterinary inspection for general health conditions and were acclimated to the laboratory environment for 1 week. An animal test was performed in the Laboratory Animal Research Center, Sungkyunkwan University.
# (§4) The test material was administered into the tail vein of the grouped ICR mice at a dose of 100 μL once a week for 4 weeks. To verify the toxicity and safety of the test material, the concentration of EpoB encapsulated in apoA-I was measured, and the poB-encapsulating apoA-I or the free EpoB was administered at a dose higher than the maximum tolerated dose of EpoB. For the first 2 weeks, the test material was administered to the ICR mice at a dose of 10 mg/kg, which corresponds four times the maximum tolerated dose of EpoB, and for the next 2 weeks, it was administered at a high EpoB dose of 81 mg/kg. The control apoA-I was administered at a dose corresponding to the concentration of apoA-I in the EpoB-encapsulating apoA-I.
# (§5) To observe changes in the body weight of the mice during the test period, the body weight of the mice was measured every day after the start of the test, and diarrhea, hair loss and quadriplegia as the suspected side effects of epoB were observed.
# (§6) For liver toxicity analysis, upon the death of the test animals or at the end of the test, the animals were anesthetized with a mixture of Zoletil and Rompun, and then sera were obtained by blood collection from the abdominal aorta. Alanine transferase (ALT) and aspartate transaminase (AST) in the sera were analyzed by an automatic chemistry analyzer.
# (§7) Upon the death of the test animals or at the end of the test, the animals were anesthetized with a mixture of Zoletil and Rompun. Next, the liver was harvested and weighed, and the percentage of the weight of the liver relative to the body weight was comparatively analyzed. In addition, the stomach was harvested and observed to the naked eye.
# In a primary test, an EpoB-encapsulating apoA-I was prepared using an apoA-I having an endotoxin content of more than 10,000 EU/mg and was administered to ICR mice once a week for 4 weeks.
# ICR mice [2] = test: In vivo safety test with endotoxin-purified apoA-I (Example 7-3)
# Protocol: as §1, §2, §3, §4, §5, §6, §7
# Using an apoA-I purified to have an endotoxin content of 5-10 EU/mg, an EpoB-encapsulating apoA-I was prepared according to the method described in Example 7-1(1).
# EpoB and the EpoB-encapsulating apoA-I were administered at doses of 10 mg/kg and 81 mg/kg, which are higher than the maximum tolerated dose of EpoB.
# [3] = system: breast cancer cell line ZR-75-1; test: MTT cell viability assay, 72 hours; type: cell-based; conditions: ZR-75-1, overexpresses SR-B1, 72 hours
# Protocol: (§8) The MTT assay was performed in the following manner: First, an MTT concentrate obtained by dissolving 3-(4,5-dimethyl-2-thiazolyl)-2,5-diphenyl-2H-tetrazolium bromide (MTT, Calbiochem) in PBS at a concentration of 5 mg/mL was filtered and diluted (10%) to prepare an MTT solution. Meanwhile, the medium and the drug were removed from the cells treated with the drug or the drug-encapsulating apoA-I, and then 100 μL of the prepared MIT solution was seeded into each well and allowed to react at 37° C. in 5% CO2 for 3 hours. After completion of the reaction, the medium and the MTT solution were removed, and 100 μL of 100% DMSO was seeded into each well and allowed to react at room temperature for 20 minutes under a light-shielded condition. After completion of the secondary reaction, the absorbance of the sample at 570 nm was measured using a spectrophotometer (Spectra M2, Molecular device), and the measured value was substituted into the following equation to determine cell viability: […]
# (§9) In addition, the cancer cells were treated with free EpoB or the EpoB-encapsulating apoA-I at various EpoB concentrations for 72 hours, and the cell viability for each drug was measured using an MTT (3-(4,5-dimethylthiazol-2-yl)-2,5-diphenyltetrazolium bromide) assay. […]
# [4] = system: colorectal cancer cell line Caco-2; test: MTT cell viability assay, 72 hours; type: cell-based; conditions: Caco-2, overexpresses SR-B1, 72 hours
# Protocol: as §8, §9
# [5] = each ICR mouse (No. 1-7), * raised by hemolysis, listed as apoA-1
# [6] = group average (total), hemolysis values excluded
# [7] = high dose 81 mg/kg, week 3 and 4
molecule,measurement,setting,value
"apoA-I: recombinant His-tagged human apolipoprotein A-I, 28 kDa, 243 amino acids; carrier protein and negative control",body weight loss,ICR mice [1],higher body weight loss
same,toxicity,"ICR mice [1]; once a week for 4 weeks, apoA-I with endotoxin more than 10,000 EU/mg",toxicity was observed
same,ALT,ICR mice [1],34.4 ± 16.9 U/L
same,AST,ICR mice [1],52.9 ± 13.2 U/L
same,Liver (%),ICR mice [1],6 ± 1.1%
same,ALT,ICR mice [2]; [5],27 U/L and 25 U/L and 29 U/L and 21 U/L and 19 U/L and 15 U/L and 16 U/L
same,AST,ICR mice [2]; [5],64 U/L and 73 U/L and 56 U/L and 48 U/L and 69 U/L and 41 U/L and 49 U/L
same,AST/ALTT,ICR mice [2]; [5],2.37 and 2.92 and 1.93 and 2.29 and 3.63 and 2.73 and 3.06
same,Liver (%),"ICR mice [2]; each ICR mouse (No. 1-7), listed as apoA-1",3.83% and 3.55% and 4.87% and 3.42% and 4.03% and 5% and 4.13%
same,Liver (%),ICR mice [2]; group average (total),4.12 ± 0.57%
same,ALT,ICR mice [2]; [6],21.71 ± 5.03 U/L
same,AST,ICR mice [2]; [6],57.14 ± 11.03 U/L
same,AST/ALT,ICR mice [2]; [6],2.70 ± 0.52
same,"survival, body weight change and hair loss",ICR mice [2]; high dose of about 266 mg/kg,"did not affect the survival, body weight change and hair loss"
"C/C(=C\c1csc(C)n1)[C@@H]1C[C@@H]2O[C@]2(C)CCC[C@H](C)[C@H](O)[C@@H](C)C(=O)C(C)(C)[C@@H](O)CC(=O)O1 [EpoB, Epothilone B, reference compound]",survival rate,"ICR mice [1]; 22 days after the start of administration, tail vein once a week, endotoxin-containing apoA-I",100%
same,body weight loss,ICR mice [1],showed a body weight loss
same,ALT,ICR mice [1],18.1 ± .38 U/L
same,AST,ICR mice [1],45.6 ± 9.3 U/L
same,Liver (%),ICR mice [1],4.7 ± 0.3%
same,cell viability compared to treatment with the EpoB-encapsulating apoA-I,[3],higher cell viability
same,cell viability compared to treatment with the EpoB-encapsulating apoA-I,[4],higher cell viability
same,adverse effects in appearance examination,ICR mice [2]; 10 mg/kg at week 1 and week 2,no adverse effects were observed
same,gastric hypersensitivity caused by abdominal lymphadenopathy,ICR mice [2]; autopsy,observed in the control group
same,Liver (%),ICR mice [2]; each ICR mouse (No. 1-7),3.45% and 4.19% and 4.85% and 6.48% and 3.79% and 5.12% and 4.33%
same,hair loss,ICR mice [2]; [7],hair loss occurred
same,quadriplegia,ICR mice [2]; [7],quadriplegia
same,survival of the mice,ICR mice [2]; [7],dead at week 3 and week 4
same,body weight loss,"ICR mice [2]; high dose 81 mg/kg, week 3 and 4, EpoB values are of individual animals, 81 mg/kg",about 25% and 7-17% and about 11% and 11.5%
same,decrease of AST/ALT ratio compared to control group administered with EpoB,"ICR mice [2]; mouse, in vivo",about 47%
